Laboratory results from PubChem BioAssay (NCI).
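Interpolation was linear, between the two tested concentrations surrounding the appropriate level; five concentrations were tested over 48 hours in 96-well plates. GI50: concentration for 50% inhibition of growth. Definition used: TGI = concentration required for complete inhibition of growth.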

How the values were obtained:
Experiment in all cases: inhibition of tumour cell growth, NCI panel, 48 h
A498 renal = test system: A498 renal
NCI-H226 lung = test system: NCI-H226 lung
SW-620 colon = test system: SW-620 colon
NCI-H460 lung = test system: NCI-H460 lung
K-562 leukemia = test system: K-562 leukemia
HCT-15 colon = test system: HCT-15 colon
HS 578T breast = test system: HS 578T breast
MCF7 breast = test system: MCF7 breast
SK-MEL-2 melanoma = test system: SK-MEL-2 melanoma
SF-268 CNS = test system: SF-268 CNS
RPMI-8226 leukemia = test system: RPMI-8226 leukemia
SNB-75 CNS = test system: SNB-75 CNS
DU-145 prostate = test system: DU-145 prostate
SK-MEL-5 melanoma = test system: SK-MEL-5 melanoma
LOX IMVI melanoma = test system: LOX IMVI melanoma
OVCAR-5 ovarian = test system: OVCAR-5 ovarian
SK-MEL-28 melanoma = test system: SK-MEL-28 melanoma
SNB-19 CNS = test system: SNB-19 CNS
TK-10 renal = test system: TK-10 renal
KM12 colon = test system: KM12 colon
SK-OV-3 ovarian = test system: SK-OV-3 ovarian
A549 NSCLC = test system: A549 NSCLC
OVCAR-3 ovarian = test system: OVCAR-3 ovarian
SF-295 CNS = test system: SF-295 CNS
UACC-62 melanoma = test system: UACC-62 melanoma
MOLT-4 leukemia = test system: MOLT-4 leukemia
HOP-62 NSCLC = test system: HOP-62 NSCLC
M14 melanoma = test system: M14 melanoma
MALME-3M melanoma = test system: MALME-3M melanoma
786-0 renal = test system: 786-0 renal
HCT-116 colon = test system: HCT-116 colon
UACC-257 melanoma = test system: UACC-257 melanoma
EKVX NSCLC = test system: EKVX NSCLC
CCRF-CEM leukemia = test system: CCRF-CEM leukemia
SF-539 CNS = test system: SF-539 CNS
UO-31 renal = test system: UO-31 renal
SR leukemia = test system: SR leukemia
NCI-H23 lung = test system: NCI-H23 lung
MDA-MB-435 = test system: MDA-MB-435
HCC-2998 colon = test system: HCC-2998 colon
IGROV1 ovarian = test system: IGROV1 ovarian
T-47D breast = test system: T-47D breast
PC-3 prostate = test system: PC-3 prostate
COLO 205 colon = test system: COLO 205 colon
RXF 393 renal = test system: RXF 393 renal
MDA-MB-231 breast = test system: MDA-MB-231 breast
NCI-H522 lung = test system: NCI-H522 lung
U251 CNS = test system: U251 CNS
NCI/ADR-RES ovarian = test system: NCI/ADR-RES ovarian
HL-60(TB) leukemia = test system: HL-60(TB) leukemia
BT-549 breast = test system: BT-549 breast
CAKI-1 renal = test system: CAKI-1 renal
OVCAR-8 ovarian = test system: OVCAR-8 ovarian
ACHN renal = test system: ACHN renal
HOP-92 NSCLC = test system: HOP-92 NSCLC
OVCAR-4 ovarian = test system: OVCAR-4 ovarian
SN12C renal = test system: SN12C renal
HT29 colon = test system: HT29 colon

OC(c1cccc(C(F)(F)F)c1)c1cnccc1NC1CCCCCC1 (stereo unspecified)
GI50 (A498 renal): 3.68 µM | TGI (A498 renal): 15.9 µM | GI50 (NCI-H226 lung): 2.76 µM | TGI (NCI-H226 lung): 16.6 µM | GI50 (SW-620 colon): 1.72 µM | TGI (SW-620 colon): 3.37 µM | GI50 (NCI-H460 lung): 1.84 µM | TGI (NCI-H460 lung): 3.57 µM | GI50 (K-562 leukemia): 1.57 µM | TGI (K-562 leukemia): 4.51 µM | GI50 (HCT-15 colon): 1.81 µM | TGI (HCT-15 colon): 3.54 µM | GI50 (HS 578T breast): 2.04 µM | TGI (HS 578T breast): 5.57 µM | GI50 (MCF7 breast): 1.66 µM | TGI (MCF7 breast): 3.51 µM | GI50 (SK-MEL-2 melanoma): 1.71 µM | TGI (SK-MEL-2 melanoma): 3.34 µM | GI50 (SF-268 CNS): 3.29 µM | TGI (SF-268 CNS): 13.8 µM | GI50 (RPMI-8226 leukemia): 1.67 µM | TGI (RPMI-8226 leukemia): 4.11 µM | GI50 (SNB-75 CNS): 1.77 µM | TGI (SNB-75 CNS): 8.25 µM | GI50 (DU-145 prostate): 2.77 µM | TGI (DU-145 prostate): 7.53 µM | GI50 (SK-MEL-5 melanoma): 1.61 µM | TGI (SK-MEL-5 melanoma): 3.04 µM | GI50 (LOX IMVI melanoma): 1.59 µM | TGI (LOX IMVI melanoma): 2.98 µM | GI50 (OVCAR-5 ovarian): 1.7 µM | TGI (OVCAR-5 ovarian): 3.76 µM | GI50 (SK-MEL-28 melanoma): 1.73 µM | TGI (SK-MEL-28 melanoma): 3.24 µM | GI50 (SNB-19 CNS): 1.83 µM | TGI (SNB-19 CNS): 4.08 µM | GI50 (TK-10 renal): 1.74 µM | TGI (TK-10 renal): 3.24 µM | GI50 (KM12 colon): 1.93 µM | TGI (KM12 colon): 3.75 µM | GI50 (SK-OV-3 ovarian): 7 µM | TGI (SK-OV-3 ovarian): 20 µM | GI50 (A549 NSCLC): 3.58 µM | TGI (A549 NSCLC): 11.4 µM | GI50 (OVCAR-3 ovarian): 2.35 µM | TGI (OVCAR-3 ovarian): 6.23 µM | GI50 (SF-295 CNS): 1.52 µM | TGI (SF-295 CNS): 3.06 µM | GI50 (UACC-62 melanoma): 1.5 µM | TGI (UACC-62 melanoma): 3.06 µM | GI50 (MOLT-4 leukemia): 2.3 µM | TGI (MOLT-4 leukemia): 6.19 µM | GI50 (HOP-62 NSCLC): 1.89 µM | TGI (HOP-62 NSCLC): 3.63 µM | GI50 (M14 melanoma): 1.8 µM | TGI (M14 melanoma): 3.64 µM | GI50 (MALME-3M melanoma): 1.51 µM | TGI (MALME-3M melanoma): 2.94 µM | GI50 (786-0 renal): 1.62 µM | TGI (786-0 renal): 3.08 µM | GI50 (HCT-116 colon): 1.65 µM | TGI (HCT-116 colon): 3.18 µM | GI50 (UACC-257 melanoma): 2.36 µM | TGI (UACC-257 melanoma): 4.66 µM | GI50 (EKVX NSCLC): 1.98 µM | TGI (EKVX NSCLC): 4.68 µM | GI50 (CCRF-CEM leukemia): 2.56 µM | TGI (CCRF-CEM leukemia): 7.98 µM | GI50 (SF-539 CNS): 1.71 µM | TGI (SF-539 CNS): 3.15 µM | GI50 (UO-31 renal): 1.35 µM | TGI (UO-31 renal): 2.97 µM | GI50 (SR leukemia): 2.2 µM | TGI (SR leukemia): 6.51 µM | GI50 (NCI-H23 lung): 1.85 µM | TGI (NCI-H23 lung): 5.39 µM | GI50 (MDA-MB-435): 1.66 µM | TGI (MDA-MB-435): 3.13 µM | GI50 (HCC-2998 colon): 1.74 µM | TGI (HCC-2998 colon): 3.36 µM | GI50 (IGROV1 ovarian): 1.7 µM | TGI (IGROV1 ovarian): 3.43 µM | GI50 (T-47D breast): 1.79 µM | TGI (T-47D breast): 4.82 µM | GI50 (PC-3 prostate): 1.53 µM | TGI (PC-3 prostate): 4.65 µM | GI50 (COLO 205 colon): 1.73 µM | TGI (COLO 205 colon): 3.37 µM | GI50 (RXF 393 renal): 1.44 µM | TGI (RXF 393 renal): 2.89 µM | GI50 (MDA-MB-231 breast): 1.64 µM | TGI (MDA-MB-231 breast): 3.22 µM | GI50 (NCI-H522 lung): 1.65 µM | TGI (NCI-H522 lung): 3.56 µM | GI50 (U251 CNS): 1.83 µM | TGI (U251 CNS): 3.43 µM | GI50 (NCI/ADR-RES ovarian): 1.85 µM | TGI (NCI/ADR-RES ovarian): 4.18 µM | GI50 (HL-60(TB) leukemia): 2.13 µM | TGI (HL-60(TB) leukemia): 4.47 µM | GI50 (BT-549 breast): 2.13 µM | TGI (BT-549 breast): 5.47 µM | GI50 (CAKI-1 renal): 1.55 µM | TGI (CAKI-1 renal): 3.85 µM | GI50 (OVCAR-8 ovarian): 2.1 µM | TGI (OVCAR-8 ovarian): 4.59 µM | GI50 (ACHN renal): 1.69 µM | TGI (ACHN renal): 3.24 µM | GI50 (HOP-92 NSCLC): 1.32 µM | TGI (HOP-92 NSCLC): 3.88 µM | GI50 (OVCAR-4 ovarian): 1.83 µM | TGI (OVCAR-4 ovarian): 6.33 µM | GI50 (SN12C renal): 1.87 µM | TGI (SN12C renal): 4.08 µM | GI50 (HT29 colon): 1.78 µM | TGI (HT29 colon): 3.72 µM
